How the values were obtained:
[1] = tested on: greenfoxtail (Setaria viridis L.); test: Test Example 1: foliar treatment, growth inhibition rate, greenfoxtail; format: in vivo; conditions: visually observed 17th to 23rd day after application
Summary of the method: (§1)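 Post-emergence foliar spray, pot test; WP/EC formulation in water at 500 L/ha, + 0.1 vol % spreader; leaf stage at treatment: corn 2.0–3.5, green foxtail 1.0–3.0, rice 1.0–2.5, wheat 1.7–3.4; visual % inhibition at 17–23 DAT (0 = untreated, 100 = dead).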

[2] = tested on: rice; test: Test Example 2: soil application on the day after sowing, growth inhibition rate, rice; format: in vivo, Oryza sativa L.; conditions: 250 g/ha active ingredient, observed on 19th to 24th day
Summary of the method: (§2)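 Seeds were sown in upland field soil in pots, and on the following day compounds formulated as wettable powders or emulsifiable concentrates were diluted in water (500 liter per hectare) and sprayed onto the soil at prescribed active-ingredient doses. Growth was scored visually 19–24 days later, 0 = untreated to 100% = complete kill.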

[3] = tested on: rice (Oryza sativa L.); test: Test Example 1: foliar treatment, growth inhibition rate, rice; format: in vivo; conditions: visually observed 17th to 23rd day after application
Summary of the method: as §1

[4] = tested on: redroot pigweed (Amaranthus retroflexus L.); test: Test Example 1: foliar treatment, growth inhibition rate, redroot pigweed; format: in vivo; conditions: visually observed 17th to 23rd day after application
Summary of the method: (§3)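 Visual scoring of growth inhibition, 0% (untreated) to 100% (complete kill), on days 17–23 following post-emergence spray of formulated compound in water (500 L/ha, 0.1 vol % spreader); plants treated at set leaf stages, e.g. corn 2.0–3.5, wheat 1.7–3.4.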

[5] = tested on: crabgrass (Digitaria sanguinalis L.); test: Test Example 1: foliar treatment, growth inhibition rate, crabgrass; format: in vivo; conditions: visually observed 17th to 23rd day after application
Summary of the method: as §3

[6] = tested on: corn (Zea mays L.); test: Test Example 1: foliar treatment, growth inhibition rate, corn; format: in vivo; conditions: visually observed 17th to 23rd day after application
Summary of the method: as §1

[7] = tested on: soybean; test: Test Example 2: soil application on the day after sowing, growth inhibition rate, soybean; format: in vivo, Glycine max Merr.; conditions: 250 g/ha active ingredient, observed on 19th to 24th day
Summary of the method: as §2

[8] = tested on: redroot pigweed; test: Test Example 2: soil application on the day after sowing, growth inhibition rate, redroot pigweed; format: in vivo, Amaranthus retroflexus L.; conditions: 250 g/ha active ingredient, observed on 19th to 24th day
Summary of the method: as §2

[9] = tested on: corn; test: Test Example 2: soil application on the day after sowing, growth inhibition rate, corn; format: in vivo, Zea mays L.; conditions: 250 g/ha active ingredient, observed on 19th to 24th day
Summary of the method: as §2

[10] = tested on: prickly sida; test: Test Example 2: soil application on the day after sowing, growth inhibition rate, prickly sida; format: in vivo, Sida spinosa L.; conditions: 250 g/ha active ingredient, observed on 19th to 24th day
Summary of the method: as §2

[11] = tested on: crabgrass; test: Test Example 2: soil application on the day after sowing, growth inhibition rate, crabgrass; format: in vivo, Digitaria sanguinalis L.; conditions: 250 g/ha active ingredient, observed on 19th to 24th day
Summary of the method: as §2

[12] = tested on: barnyardgrass (Echinochloa crus-galli L.); test: Test Example 1: foliar treatment, growth inhibition rate, barnyardgrass; format: in vivo; conditions: visually observed 17th to 23rd day after application
Summary of the method: (§4)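 Plants grown in upland soil in pots were sprayed on the foliage at set leaf stages (corn 2.0–3.5, greenfoxtail 1.0–3.0, rice 1.0–2.5, wheat 1.7–3.4 leaves) with wettable powder or emulsifiable concentrate formulations diluted in water at 500 L/ha plus 0.1 vol % spreader. Growth inhibition was scored visually 17–23 days later.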

[13] = tested on: greenfoxtail; test: Test Example 2: soil application on the day after sowing, growth inhibition rate, greenfoxtail; format: in vivo, Setaria viridis L.; conditions: 250 g/ha active ingredient, observed on 19th to 24th day
Summary of the method: as §2

[14] = tested on: barnyardgrass; test: Test Example 2: soil application on the day after sowing, growth inhibition rate, barnyardgrass; format: in vivo, Echinochloa crus-galli L.; conditions: 250 g/ha active ingredient, observed on 19th to 24th day
Summary of the method: as §2

[15] = tested on: velvetleaf (Abutilon theophrasti MEDIC.); test: Test Example 1: foliar treatment, growth inhibition rate, velvetleaf; format: in vivo; conditions: visually observed 17th to 23rd day after application
Summary of the method: as §4

[16] = tested on: soybean (Glycine max Merr.); test: Test Example 1: foliar treatment, growth inhibition rate, soybean; format: in vivo; conditions: visually observed 17th to 23rd day after application
Summary of the method: as §3

[17] = tested on: wheat (Triticum spp.); test: Test Example 1: foliar treatment, growth inhibition rate, wheat; format: in vivo; conditions: visually observed 17th to 23rd day after application
Summary of the method: as §1

[18] = tested on: wheat; test: Test Example 2: soil application on the day after sowing, growth inhibition rate, wheat; format: in vivo, Triticum spp.; conditions: 250 g/ha active ingredient, observed on 19th to 24th day
Summary of the method: as §2

[19] = tested on: prickly sida (Sida spinosa L.); test: Test Example 1: foliar treatment, growth inhibition rate, prickly sida; format: in vivo; conditions: visually observed 17th to 23rd day after application
Summary of the method: as §3

[20] = tested on: velvetleaf; test: Test Example 2: soil application on the day after sowing, growth inhibition rate, velvetleaf; format: in vivo, Abutilon theophrasti MEDIC.; conditions: 250 g/ha active ingredient, observed on 19th to 24th day
Summary of the method: as §2

Row | SMILES | Growth inhibition rate (%) Rice [2] [%] | Growth inhibition rate (%) Soybean [7] [%] | Growth inhibition rate (%) redroot pigweed [8] [%] | Growth inhibition rate (%) Corn [9] [%] | Growth inhibition rate (%) Prickly sida [10] [%] | Growth inhibition rate (%) Crabgrass [11] [%] | Growth inhibition rate (%) Greenfoxtail [13] [%] | Growth inhibition rate (%) Barnyardgrass [14] [%] | Growth inhibition rate (%) Wheat [18] [%] | Growth inhibition rate (%) Velvetleaf [20] [%] | Growth inhibition rate (%) Greenfoxtail ([1]; 31 g/ha active ingredient) [%] | Growth inhibition rate (%) Rice ([3]; 31 g/ha active ingredient) [%] | Growth inhibition rate (%) redroot pigweed ([4]; 31 g/ha active ingredient) [%] | Growth inhibition rate (%) Crabgrass ([5]; 31 g/ha active ingredient) [%] | Growth inhibition rate (%) Corn ([6]; 31 g/ha active ingredient) [%] | Growth inhibition rate (%) Barnyardgrass ([12]; 31 g/ha active ingredient) [%] | Growth inhibition rate (%) Velvetleaf ([15]; 31 g/ha active ingredient) [%] | Growth inhibition rate (%) Soybean ([16]; 31 g/ha active ingredient) [%] | Growth inhibition rate (%) Wheat ([17]; 31 g/ha active ingredient) [%] | Growth inhibition rate (%) Prickly sida ([19]; 31 g/ha active ingredient) [%] | also measured
1 | CCC(C)SC(=O)Oc1c(C(=O)c2ccc(S(C)(=O)=O)c(C(=O)OC)c2Cl)cnn1CC (centres unmarked) [compound 220] | 100 | 0 | 100 | 0 | 95 | 95 | 100 | 95 | 0 | 95 | – | – | – | – | – | – | – | – | – | – | Growth inhibition rate (%) Greenfoxtail ([1]; 63 g/ha active ingredient): 70%; Growth inhibition rate (%) Rice ([3]; 63 g/ha active ingredient): 80%; Growth inhibition rate (%) redroot pigweed ([4]; 63 g/ha active ingredient): 100%; Growth inhibition rate (%) Crabgrass ([5]; 63 g/ha active ingredient): 60%; Growth inhibition rate (%) Corn ([6]; 63 g/ha active ingredient): 0%; Growth inhibition rate (%) Barnyardgrass ([12]; 63 g/ha active ingredient): 100%; Growth inhibition rate (%) Velvetleaf ([15]; 63 g/ha active ingredient): 90%; Growth inhibition rate (%) Soybean ([16]; 63 g/ha active ingredient): 100%; Growth inhibition rate (%) Wheat ([17]; 63 g/ha active ingredient): 0%; Growth inhibition rate (%) Prickly sida ([19]; 63 g/ha active ingredient): 90%
2 | CCn1ncc(C(=O)c2ccc(S(C)(=O)=O)c(C(=O)OC)c2C)c1OC(=O)SCc1ccccc1 [compound 93] | 90 | 0 | 100 | 0 | 75 | 90 | 100 | 95 | 0 | 65 | 95 | 70 | 98 | 80 | 30 | 95 | 80 | 80 | 0 | 70 | –
3 | CCSC(=O)Oc1c(C(=O)c2ccc(C(F)(F)F)cc2S(C)(=O)=O)cnn1CC [compound 68] | 100 | 40 | 98 | 0 | 95 | 60 | 30 | 100 | 0 | 100 | 60 | 60 | 75 | 40 | 10 | 95 | 80 | 70 | 0 | 70 | –
4 | CCCCCCCc1c(S(C)(=O)=O)ccc(C(=O)c2cnn(C)c2OC(=O)SCC)c1C [compound 225] | 0 | 0 | 30 | 0 | 0 | 0 | 0 | 0 | 0 | 0 | 20 | 0 | 0 | 0 | 0 | 30 | 0 | 50 | 0 | 0 | –
